Data: patent US10046001B2, “Compositions and methods for reducing intraocular pressure” (UNIVERSITY OF MIAMI, priority 2013, dated 2018)

Tests used:
DBA/2J mice = experiment: IOP lowering after topical application in DBA/2J mice; assay type: in vivo, mouse; conditions: DBA/2J mice, topical 10 pmole in 5% DMSO, once daily
Experimental: The right eye was treated with vehicle alone and left eye treated with lipid. Control had both eyes treated with vehicle. A. In DBA/2J mice the indicated lipid in vehicle or control (vehicle only) were administered one daily at around 7.5 months of age in mice which were noted to have a IOP≥18 mm of Hg (20% increase from an average baseline of 15 mm of Hg was employed as treatment point). The average IOP recordings are shown for indicated lipids. B. A 10 picomole each of six PC (13:0/13:0; PE (18:0/18:0), Lyso-PS 18:0, PS 18:1, Sphinganine and C17S1P) were combined and applied as a topical dose once daily for up to 7 days on DBA/2J mouse eyes in 5% DMSO (vehicle). […] Transgenic myocillin mice [Tg-MYOC(Y437H)] subjected to a topical dose of indicated lipids as noted above (FIG. 5C). The IOP lowering compared to control was noted on day 4 and 6 as shown.
Intraocular pressure lowering in mouse models. The endogenous lipids lowered IOP in a DBA/2J mouse model of glaucoma (FIG. 5A). DBA/2J is the only known mouse animal where elevation of IOP occur spontaneously. Although this mouse also suffers from pigmentary dispersion, however, elevation of IOP appears not to correlate with […]. The lipids as indicated were applied as a topical dose (10 pmole in 5% DMSO as vehicle). The 5% DMSO only vehicle served as a control (FIG. 5A). […] A 10 picomole each of six PC (13:0/13:0; PE (18:0/18:0), Lyso-PS 18:0, PS 18:1, Sphinganine, and C17S1P) were combined and applied as a topical dose once daily for up to 7 days on DBA/2J mouse eyes in 5% DMSO (vehicle) (in other words, 10 picomoles of each PC was included). […] In addition to the DBA/2J model described here, these endogenous lipids lowered IOP in cochlin and connective tissue growth factor (CTGF) over-expression models. […] Thus the endogenous lipids assessed here lowered IOP in vastly different DBA/2J and MYOC(Y437H) mouse models as well as in cochlin and CTGF overexpression models covering a broad swath of four rodent glaucoma models that encompass induced as well as spontaneous IOP elevation.
Topical application of lipids and measurement of IOP: The lipids were topically applied as 1 μl drops with 10 pmole lipids. Pressure was measured with a tonolab (Colonial
Medical Supplies, N.H.) or with an assembled cannulation device, used in our laboratory. An initial assessment had utilized 10% DMSO as vehicle. However, all data reported here utilized 5% DMSO.

[1] = test system: assembled layers of primary TM cells; experiment: fluorescein transport across assembled layers of primary TM cells in Using type chamber; assay type: cell-based, human; conditions: 10 pmole lipid, transport at 15 seconds
From the text: A pentalayer of cells were casted on a PVDF filter of 0.45 μm pore size with second to fourth layer topped with rat collagen. Control (without lipid treatment) or with 10 pmole of indicated lipid treated cells were used for these measurements. The transport of flourescein at 15 seconds from the opposite end after introduction of sample at one was estimated. Mean and standard deviation from three independent experiments have been presented. The relative transport has been divided into two zones (marked in yellow), that when the transport is above 0.48 but less than 0.62=1; and above 0.62=2 as indicated.
The transport of fluorescein across cell assembled layered TM cells was determined in an Using type chamber (FIG. 4). The five layers of primary TM cells with collagen matrix in between layers after the first layer were laid on a sterile PVDF membrane (0.45 μm pores). The fluorescein was introduced from one side of the port (the cellular side) and was sampled from another side (the membrane side) within 15 seconds of introduction. Differences in transport between the cell only control and cell treated with lipids for 1-3 hours prior to forming multi-layers (FIG. 4) was observed. The fluorescein transport was quantized and divided into two categories (marked with yellow zones) as 1 and 2 (FIG. 4).
Using type chamber experiments: An Using type chamber (cat #USS1L, World Precision Instrument, Inc.) was used to measure fluorescein flow (sodium fluorescein dye) across the PVDF membrane (cat #75696E Pall Life Sciences, Pensacola Fla.). Trabecular meshwork cells were cultured as described above on the PVDF membrane. Before plating the cells a layer of collagen matrix (Rat Tail Collagen, cat #BD 354249) was formed on the membrane to facilitate the adherence of TM cells to the membrane. The cells were allowed to form a confluent monolayer over a period of 16-24 hours and then another layer of cells was plated on this monolayer. This process was repeated to ultimately achieve a confluent tri-layer of cells. The cells were transfected with DNA of interest [TREK-1+cochlin, TREK-1 and RPE65, TREK-1, transfection agent (Lipofectamine 2000) (Invitrogen)] or left untransfected. 24-36 hours post transfection the membranes were placed between the hemi-chambers of the apparatus connected to a peristaltic pump creating flow across the membrane bathing in 1× DPBS. To measure the flow across the membrane, sodium flourescein dye was used (1:100 dilution of 1 mg/ml). The dye was introduced in one hemi-chamber and equal amounts (100 μl) were aspirated from the other hemi-chamber at 5 minutes post-injection. The fluorescein intensity was measured using the spectrophotometer.

`CCCCCCCCCCCCCCCCCC(=O)OC[C@@H](O)COP(=O)(O)OC[C@H](N)C(=O)O` [PS(18:0/0:0)] was tested, and the “lowering of IOP” value (DBA/2J mice) was “lowering of IOP” and the “transport of fluorescein in assembled layers of primary TM cells” value (“transport of fluorescein” for short) [1] was “showed an effect”.
With `CCCCCCCCCCCCCC(=O)OC[C@@H](O)COP(=O)(O)OC[C@H](N)C(=O)O` [PS(14:0/0:0)] the “lowering of IOP” value (DBA/2J mice) was “lowering of IOP” and the “transport of fluorescein” value [1] was “showed an effect”.
In the case of `CCCCCCCCCCC/C=C/[C@@H](O)[C@H](COP(=O)([O-])OCC[N+](C)(C)C)NC(=O)CCCCCCCCCCCCCCCCCCCCCCCC` [SM(d16:1/25:0)], the “lowering of IOP” value (DBA/2J mice) was “lowering of IOP” and the “transport of fluorescein” value [1] was “showed an effect”.
`CCCCCCCC/C=C\CCCCCCCCCCCCCCCC(=O)N[C@@H](CO)[C@H](O)/C=C/CCCCCCCCCCCCC` [Cer(d18:1/26:1(17Z))] was tested, and the “lowering of IOP” value (DBA/2J mice) was “lowering of IOP” and the “transport of fluorescein” value [1] was “showed an effect”.
For `CCCCC/C=C\C/C=C\C/C=C\C/C=C\CCCC(=O)O[C@H](COC(=O)CCCCCCCCCCCCCCCCC)COP(=O)(O)OC1[C@H](O)[C@H](O)C(O)[C@H](O)[C@H]1O` (stereo partly drawn) [PI(18:0/20:4)5Z,8Z,11Z,14Z))], the “lowering of IOP” value (DBA/2J mice) was “lowering of IOP” and the “transport of fluorescein” value [1] was “showed an effect”.
`CCCCCCCCCCCCCC[C@@H](O)[C@@H](N)COP(=O)(O)O` [C17 Sphinganine-1-phosphate] was tested, and the “lowering of IOP” value (DBA/2J mice) was “lowering of IOP” and the “transport of fluorescein” value [1] was “showed an effect”.
For `CCCCCCCCCCCCC(=O)OC[C@H](COP(=O)([O-])OCC[N+](C)(C)C)OC(=O)CCCCCCCCCCCC` [PC(13:0/13:0), 1,2-ditridecanoyl-sn-glycero-3-phosphocholine, reference compound], the “lowering of IOP” value (DBA/2J mice) was “not” and the “transport of fluorescein” value [1] was “lack of any effect”.
In the case of `CCCCCCCCCCCCCCC[C@@H](O)[C@@H](N)CO` [Sphinganine], the “lowering of IOP” value (DBA/2J mice) was “lowering of IOP” and the “transport of fluorescein” value [1] was “showed an effect”.
With `CCCC/C=C\C/C=C\CCCCCCCC(=O)O[C@H](COC(=O)CCCCCCCCCCC)COP(=O)(O)OC1C(O)C(O)C(O)[C@@H](O)C1O` (stereo partly drawn) [PI(12:0/17:2)9Z,12Z))] the “lowering of IOP” value (DBA/2J mice) was “lowering of IOP” and the “transport of fluorescein” value [1] was “showed an effect”.
With `CCCCCCCC/C=C\CCCCCCCC(=O)N[C@@H](CO)[C@H](O)CCCCCCCCCCCCCCC` [Cer(d18:0/18:1(9Z))] the “lowering of IOP” value (DBA/2J mice) was “lowering of IOP” and the “transport of fluorescein” value [1] was “showed an effect”.
For `CCCCCCCCCCCCCCCCCC(=O)OC[C@H](COP(=O)(O)OCCN)OC(=O)CCCCCCCCCCCCCCCCC` [PE(18:0/18:0)], the “lowering of IOP” value (DBA/2J mice) was “lowering of IOP” and the “transport of fluorescein” value [1] was “showed an effect”.
`CCCC/C=C\CCCCCCCC(=O)O[C@H](COC(=O)CCCCCCCCCCC)COP(=O)([O-])OCC[N+](C)(C)C` [PC(12:0/14:1(9Z))] was tested, and the “lowering of IOP” value (DBA/2J mice) was “not” and the “transport of fluorescein” value [1] was “lack of any effect”.
